Measured values: patent US12545637B2, “Extrahepatic targeted cationic lipid compound with high efficiency and low toxicity and its composition” (BEIJING YOUCARE KECHUANG PHARMACEUTICAL TECHNOLOGY CO., LTD., priority 2023, dated 2026)

Key:
[1] = tested on: female BALB/C mice; assay: In vivo imaging in mice of Fluc-mRNA LNP formulations (mRNA expression and duration); conditions: Fluc-mRNA LNP intramuscular; for average radiation intensity, 6 h: 6 h after administration; for average radiation intensity, 24 h: 24 h after administration; for average radiation intensity, 48 h: 48 h after administration; for average radiation intensity, 7 d: 7 d after administration
Procedure: (§1) The LNP formulation (prepared according to Example 4) containing […] Fluc-mRNA was injected intramuscularly into female BALB/C mice aged 4-6 weeks and weighed 17-19 g, and the mice were intraperitoneally injected with fluorescent imaging substrate at specific time points after administration (6h, 24 h, 48h and 7d), where the mice were allowed to free move for 5 minutes, and then the average radiation intensity (corresponding to fluorescence expression intensity) of the protein expression of the mRNA carried by the LNP in the mice was detected by the IVIS Spectrum small animal in vivo imaging system.

[2] = tested on: 293T cells; assay: Cell survival rate assay (CCK-8); format: cell-based; conditions: LNP with 1.5 μg Fluc-mRNA, 24 hours, CCK-8
Procedure: Cell recovery and passage: 293T cells were recovered, cultured in a culture dish, and passaged to the required number of cells.
(§2) Seeding plate: The cells in the culture dish were digested and counted. Cells were spread in a 96-well plate at 10,000 cells per well and in a 12-well plate at 150,000 cells per well. Cells were cultured overnight until the cells adhered to the wall.
An LNP formulation containing 1.5 μg of Fluc-mRNA (prepared according to example 4, the carrier components of the LNP formulation were cationic lipid, neutral lipid, structured lipid and polymer-conjugated lipid at a molar ratio of 49:10:39.5:1.5, wherein the cationic lipid was listed in Table 1) and the formulation of Lipofectamine 3000 were added to the cell culture medium of a 96-well plate, and further cultivated for 24 hours. 10 μL of CCK-8 solution was then added to each well, and the culture plate was incubated in an incubator for 1 hour. The absorbance at 450 nm was measured by a microplate reader.

[3] = Detection of encapsulation efficiency, drug loading concentration and total RNA concentration (RiboGreen); format: physicochemical; conditions: LNP formulation prepared from the cationic lipid
Source text: Encapsulation efficiency is a key quality attribute of liposomes, which refers to the percentage of drug content encapsulated in the lipid bimolecular layer accounting for the total drug dose and can reflect the degree of drug encapsulation in liposomes. The Chinese Pharmacopoeia stipulates that the encapsulation efficiency should generally not be less than 80%.
The drug loading amount is the ratio of the amount of drug in the liposome to the total amount of drug and carrier in the liposome. The drug loading amount directly affects the clinical application dose of the drug. […] The drug loading concentration is proportional to the drug loading amount, and the relative proportion of the drug loading concentrations can represent the relative proportion of the drug loading amounts. The relative ratio of the total RNA concentrations may represent the relative ratio of the amounts of mRNA carried by the LNP formulations.
1×TE buffer, 0.1% Triton X-100 buffer, RiboGreen reagent (1: 200) and mRNA standard stock solution were prepared.
An appropriate amount of the sample was added to an appropriate amount of 1×TE buffer, and the mixture was diluted to obtain a solution containing approximately […] sample per 1 mL. Then the sample was added to a 96-well plate, and 50 μL of the diluted test sample or the mRNA standard stock solution was added to each well, then 1×TE buffer and 0.1% Triton X-100 buffer were added. The sample was incubated at 37° C. for 10 minutes, and 100 μL RiboGreen reagent (1:200) was added to each well of the test sample in the 96-well plate. The sample was centrifugated, and the data were read using a microplate reader, and processed.

[4] = Particle size and polydispersity index (PDI) of lipid nanoparticles by dynamic light scattering; format: physicochemical; conditions: for PDI: LNP formulation of the cationic lipid, 25° C.; for Particle size: LNP formulation of the cationic lipid/DSPC/cholesterol/DMG-PEG2000 49:10:39.5:1.5, 25° C.
Procedure: The particle size and polydispersity index (PDI) were determined by dynamic light scattering using Malvern laser particle size analyzer.
10 μL of the liposome solution was weighed, diluted to 1 mL with RNase-free deionized water, and added to the sample pool. Each sample was measured in triplicate. The measurement conditions were: […] scattering angle, and 25° C.

[5] = tested on: 293T cells; assay: Fluorescent detection of Fluc-mRNA (cell transfection efficiency of LNP formulations); format: cell-based; conditions: for Relative light unit (RLU): LNP with 0.3 μg Fluc-mRNA, 96-well plate, 24 hours
Procedure: as §2
The corresponding reagents were added according to the instructions of the Gaussia Luciferase Assay Kit, and the fluorescence expression intensity of each well was detected by an IVIS fluorescence detection system.

[6] = tested on: female BALB/C mice; assay: Distribution of liposomes in mice (protein expression in liver, spleen, lung, heart and kidney); format: in vivo
Procedure: as §1
Current mRNA vaccines usually express proteins in muscle.

[7] = tested on: 293T cells; assay: Fluorescent detection of Fluc-mRNA (cell transfection efficiency of LNP formulations); format: cell-based

In the case of `CCCCCCCCCCCCC(O)CN(C)CCCCCC(=O)OCC(CCCCCC)CCCCCCCC` (stereo not shown) [HHMA, reference compound], the “average radiation intensity, 6 h” value [1] is reported as 661080, the “average radiation intensity, 24 h” value [1] is reported as 120010 and the “average radiation intensity, 48 h” value [1] is reported as 33346. For the same compound, the “average radiation intensity, 7 d” value [1] was 5958, the Cell survival rate [2] was 64.27% and the Drug loading concentration [3] was 32.65 µg/mL. The Encapsulation efficiency [3] was 60.2%, the “Total RNA concentration” value [3] was 36.44 µg/mL and the PDI [4] was 16.6%. For the same compound, the Particle size [4] was 144 nm, the “Relative light unit (RLU)” value [5] was 2078940 RLU and the “protein expression in the liver” value ([6]; mouse, in vivo) was “had protein expression in the liver”.
`CCCCCCCCC(CCCCCCCC)COC(=O)CCCCCN(CCCO)CCCCN(CCCO)CCCCCC(=O)OCC(CCCCCCCC)CCCCCCCC` [YK-424, bis(2-octyldecyl) 6,6′-(butane-1,4-diylbis((3-hydroxypropyl)azanediyl))dihexanoate] showed a Cell survival rate [2] of 27.93%, a Drug loading concentration [3] of 32.84 µg/mL and an Encapsulation efficiency [3] of 92.8%. For the same compound, the “Total RNA concentration” value [3] was 35.39 µg/mL, the PDI [4] was 16.1% and the Particle size [4] was 170 nm. The “Relative light unit (RLU)” value [5] was 2883414 RLU, the “protein expression in the liver” value ([6]; mouse, in vivo) was “had no protein expression in the liver” and the “protein expression in the spleen” value ([6]; mouse, in vivo) was “had protein expression in the spleen”.
With `CCCCCCCCCCOC(=O)CCCN(CCO)CCCN(CCO)CCCCCCOC(=O)CC(CCCCCC)CCCCCC` [YK-418, 6-((3-((4-(decyloxy)-4-oxobutyl)(2-hydroxyethyl)amino)propyl)(2-hydroxyethyl)amino)hexyl 3-hexylnonanoate] the Cell survival rate [2] was 21.05%, the Drug loading concentration [3] was 24.96 µg/mL and the Encapsulation efficiency [3] was 75.6%. For the same compound, the “Total RNA concentration” value [3] was 33.01 µg/mL, the PDI [4] was 17.2% and the Particle size [4] was 149 nm. The “Relative light unit (RLU)” value [5] was 111251 RLU and the “protein expression in the liver” value ([6]; mouse, in vivo) was “had no protein expression in the liver”.
In the case of “bis(3-hexylnonyl) 8,8′-((2-hydroxyethyl) azanediyl)dioctanoate [Compound 23, reference compound]”, the “average radiation intensity, 6 h” value [1] is reported as 581400, the “average radiation intensity, 24 h” value [1] is reported as 100970 and the “average radiation intensity, 48 h” value [1] is reported as 32917. For the same compound, the “average radiation intensity, 7 d” value [1] was 6105, the Cell survival rate [2] was 69.11% and the Drug loading concentration [3] was 20.01 µg/mL. The Encapsulation efficiency [3] was 56.2%, the “Total RNA concentration” value [3] was 31.05 µg/mL and the PDI [4] was 12.1%. For the same compound, the Particle size [4] was 147 nm, the “Multiple of YK-401” value [5] was 4.00 and the “Relative light unit (RLU)” value [5] was 1402597 RLU. The “Multiple of YK-402” value ([7]; RLU of YK-402 divided by RLU of the lipid named in the row) was 3.60, the “Multiple of YK-403” value ([7]; RLU of YK-403 divided by RLU of the lipid named in the row) was 3.74 and the “Multiple of YK-407” value ([7]; RLU of YK-407 divided by RLU of the lipid named in the row) was 14.53. For the same compound, the “Multiple of YK-422” value ([7]; RLU of YK-422 divided by RLU of the lipid named in the row) was 4.59, the “Multiple of YK-423” value ([7]; RLU of YK-423 divided by RLU of the lipid named in the row) was 4.44 and the “Ratio relative to SM-102 (RLU, times that of SM-102)” value ([7]; RLU of the lipid divided by RLU of SM-102) was 0.82. For the same compound, the “protein expression in the liver” value ([6]; mice, intramuscular Fluc-mRNA LNP, at 6h (FIG. 14)) was “had protein expression in the liver”.
For `CCCCCCCCCCOC(=O)CCCCCN(CCO)CCN(CCO)CCCCCC(=O)OCCC(CCCCCC)CCCCCC` [YK-411], the “average radiation intensity, 6 h” value [1] was 5850, the “average radiation intensity, 24 h” value [1] was 2022 and the “average radiation intensity, 48 h” value [1] was 975. For the same compound, the “average radiation intensity, 7 d” value [1] was 480, the Cell survival rate [2] was 16.33% and the Drug loading concentration [3] was 36.72 µg/mL. The Encapsulation efficiency [3] was 86.3%, the “Total RNA concentration” value [3] was 42.57 µg/mL and the PDI [4] was 5.2%. For the same compound, the Particle size [4] was 150 nm, the “Relative light unit (RLU)” value [5] was 7976 RLU and the “protein expression in the liver” value ([6]; mouse, in vivo) was “had no protein expression in the liver”.
With `CCCCCCCCCCCOC(=O)CCCCCN(CCO)CCCCCCCC(=O)OC(CCCCCCCC)CCCCCCCC` [SM-102, reference compound] the “average radiation intensity, 6 h” value [1] was 691480, the “average radiation intensity, 24 h” value [1] was 123380 and the “average radiation intensity, 48 h” value [1] was 32871. The “average radiation intensity, 7 d” value [1] was 6723, the Cell survival rate [2] was 67.90% and the Drug loading concentration [3] was 26.53 µg/mL. For the same compound, the Encapsulation efficiency [3] was 62.9%, the “Total RNA concentration” value [3] was 36.04 µg/mL and the PDI [4] was 22.3%. The Particle size [4] was 154 nm, the “Relative light unit (RLU)” value [5] was 1704121 RLU and the “protein expression in the liver” value ([6]; mouse, in vivo) was “had protein expression in the liver”. The “protein expression in the spleen” value ([6]; mouse, in vivo) was “had protein expression in the spleen”.
Work on `CCCCCCCCC(CCCCCCCC)OC(=O)CCCCCN(CCO)CCCN(CCO)CCCCCC(=O)OC(CCCCCCCC)CCCCCCCC` [YK-419, di(heptadecan-9-yl) 6,6′-(propane-1,3-diyl-bis((2-hydroxyethyl)azanediyl))dihexanoate] yielded a Cell survival rate [2] of 38.92%, a Drug loading concentration [3] of 30.40 µg/mL and an Encapsulation efficiency [3] of 88.3%. For the same compound, the “Total RNA concentration” value [3] was 34.44 µg/mL, the PDI [4] was 11.2% and the Particle size [4] was 169 nm. For the same compound, the “Relative light unit (RLU)” value [5] was 3167322 RLU, the “protein expression in the liver” value ([6]; mouse, in vivo) was “had no protein expression in the liver” and the “protein expression in the spleen” value ([6]; mouse, in vivo) was “had protein expression in the spleen”.
In the case of `CCCCCCCCC(CCCCCC)C(=O)OCCCCCCN(CCCCO)CCCCCCOC(=O)C(CCCCCC)CCCCCCCC` (stereo not shown) [ALC-0315, reference compound], the “average radiation intensity, 6 h” value [1] is reported as 841020, the “average radiation intensity, 24 h” value [1] is reported as 189740 and the “average radiation intensity, 48 h” value [1] is reported as 40125. For the same compound, the “average radiation intensity, 7 d” value [1] was 7014, the Cell survival rate [2] was 47.21% and the Drug loading concentration [3] was 26.88 µg/mL. For the same compound, the Encapsulation efficiency [3] was 63.3%, the “Total RNA concentration” value [3] was 37.86 µg/mL and the PDI [4] was 18.2%. For the same compound, the Particle size [4] was 205 nm, the “Relative light unit (RLU)” value [5] was 2189470 RLU and the “protein expression in the liver” value ([6]; mouse, in vivo) was “had protein expression in the liver”.
For `CCCCCCCCCCCOC(=O)CCCN(CCO)CCCN(CCO)CCCCCC(=O)OCC(CCCCCCCC)CCCCCCCC` [YK-415, 2-octyldecyl 6-((2-hydroxyethyl)(3-((2-hydroxyethyl)(4-oxo-4-(undecyloxy)butyl)amino)propyl)amino)hexanoate], the “average radiation intensity, 6 h” value [1] was 117840, the “average radiation intensity, 24 h” value [1] was 64501 and the “average radiation intensity, 48 h” value [1] was 15790. For the same compound, the “average radiation intensity, 7 d” value [1] was 4041, the Cell survival rate [2] was 61.16% and the Drug loading concentration [3] was 31.08 µg/mL. The Encapsulation efficiency [3] was 87.8%, the “Total RNA concentration” value [3] was 35.39 µg/mL and the PDI [4] was 15.6%. For the same compound, the Particle size [4] was 178 nm and the “Relative light unit (RLU)” value [5] was 298021 RLU.
With `CCCCCCCCC(CCCCCCCC)OC(=O)CCCCCCCN(CCO)CCCCCCCC(=O)OCCC(CCCCCC)CCCCCC` [Compound 21, reference compound] the “average radiation intensity, 6 h” value [1] was 600500, the “average radiation intensity, 24 h” value [1] was 111040 and the “average radiation intensity, 48 h” value [1] was 31540. For the same compound, the “average radiation intensity, 7 d” value [1] was 6378, the Cell survival rate [2] was 67.84% and the “Relative light unit (RLU)” value [5] was 1511024 RLU. For the same compound, the “protein expression in the liver” value ([6]; mouse, in vivo) was “had protein expression in the liver”.
